Reference: ChEMBL document CHEMBL1152493, “CoMFA and docking studies of 2-phenylindole derivatives with anticancer activity” (Eur J Med Chem, 2009)

Tested on: MDA-MB-231
Assay: Cytotoxicity against human MDA-MB-231 cells
Type: functional, cell-based

SMILES | IC50 (read-out: IC50) | IC50 (read-out: pIC50 (converted))
COc1ccc2c(C=O)c(-c3ccccc3)[nH]c2c1 | 240 nM | 240 nM
COc1ccc(-c2[nH]c3cc(OC)c(OC)cc3c2C=O)cc1 | 220 nM | 220 nM
CCC(C)c1ccc2[nH]c(-c3ccc(OC)cc3)c(C=O)c2c1 (stereo unspecified) | 72 nM | 71.9 nM
